Experimental findings from patent publication US9932314B2, “Pyrazole compounds and their use as T-type calcium channel blockers” (IDORSIA PHARMACEUTICALS LTD, priority 2015, dated 2018) are described below.

The term IC50 denotes the concentration at which inhibition is half-maximal.

This experiment deals with T1, voltage-dependent T-type calcium channel subunit alpha-1G (Cav3.2) (Homo sapiens, UniProt O95180).
T1 construct: expressed in transfected cells; host or cells: HEK293
T1 sequence (O95180 whole entry): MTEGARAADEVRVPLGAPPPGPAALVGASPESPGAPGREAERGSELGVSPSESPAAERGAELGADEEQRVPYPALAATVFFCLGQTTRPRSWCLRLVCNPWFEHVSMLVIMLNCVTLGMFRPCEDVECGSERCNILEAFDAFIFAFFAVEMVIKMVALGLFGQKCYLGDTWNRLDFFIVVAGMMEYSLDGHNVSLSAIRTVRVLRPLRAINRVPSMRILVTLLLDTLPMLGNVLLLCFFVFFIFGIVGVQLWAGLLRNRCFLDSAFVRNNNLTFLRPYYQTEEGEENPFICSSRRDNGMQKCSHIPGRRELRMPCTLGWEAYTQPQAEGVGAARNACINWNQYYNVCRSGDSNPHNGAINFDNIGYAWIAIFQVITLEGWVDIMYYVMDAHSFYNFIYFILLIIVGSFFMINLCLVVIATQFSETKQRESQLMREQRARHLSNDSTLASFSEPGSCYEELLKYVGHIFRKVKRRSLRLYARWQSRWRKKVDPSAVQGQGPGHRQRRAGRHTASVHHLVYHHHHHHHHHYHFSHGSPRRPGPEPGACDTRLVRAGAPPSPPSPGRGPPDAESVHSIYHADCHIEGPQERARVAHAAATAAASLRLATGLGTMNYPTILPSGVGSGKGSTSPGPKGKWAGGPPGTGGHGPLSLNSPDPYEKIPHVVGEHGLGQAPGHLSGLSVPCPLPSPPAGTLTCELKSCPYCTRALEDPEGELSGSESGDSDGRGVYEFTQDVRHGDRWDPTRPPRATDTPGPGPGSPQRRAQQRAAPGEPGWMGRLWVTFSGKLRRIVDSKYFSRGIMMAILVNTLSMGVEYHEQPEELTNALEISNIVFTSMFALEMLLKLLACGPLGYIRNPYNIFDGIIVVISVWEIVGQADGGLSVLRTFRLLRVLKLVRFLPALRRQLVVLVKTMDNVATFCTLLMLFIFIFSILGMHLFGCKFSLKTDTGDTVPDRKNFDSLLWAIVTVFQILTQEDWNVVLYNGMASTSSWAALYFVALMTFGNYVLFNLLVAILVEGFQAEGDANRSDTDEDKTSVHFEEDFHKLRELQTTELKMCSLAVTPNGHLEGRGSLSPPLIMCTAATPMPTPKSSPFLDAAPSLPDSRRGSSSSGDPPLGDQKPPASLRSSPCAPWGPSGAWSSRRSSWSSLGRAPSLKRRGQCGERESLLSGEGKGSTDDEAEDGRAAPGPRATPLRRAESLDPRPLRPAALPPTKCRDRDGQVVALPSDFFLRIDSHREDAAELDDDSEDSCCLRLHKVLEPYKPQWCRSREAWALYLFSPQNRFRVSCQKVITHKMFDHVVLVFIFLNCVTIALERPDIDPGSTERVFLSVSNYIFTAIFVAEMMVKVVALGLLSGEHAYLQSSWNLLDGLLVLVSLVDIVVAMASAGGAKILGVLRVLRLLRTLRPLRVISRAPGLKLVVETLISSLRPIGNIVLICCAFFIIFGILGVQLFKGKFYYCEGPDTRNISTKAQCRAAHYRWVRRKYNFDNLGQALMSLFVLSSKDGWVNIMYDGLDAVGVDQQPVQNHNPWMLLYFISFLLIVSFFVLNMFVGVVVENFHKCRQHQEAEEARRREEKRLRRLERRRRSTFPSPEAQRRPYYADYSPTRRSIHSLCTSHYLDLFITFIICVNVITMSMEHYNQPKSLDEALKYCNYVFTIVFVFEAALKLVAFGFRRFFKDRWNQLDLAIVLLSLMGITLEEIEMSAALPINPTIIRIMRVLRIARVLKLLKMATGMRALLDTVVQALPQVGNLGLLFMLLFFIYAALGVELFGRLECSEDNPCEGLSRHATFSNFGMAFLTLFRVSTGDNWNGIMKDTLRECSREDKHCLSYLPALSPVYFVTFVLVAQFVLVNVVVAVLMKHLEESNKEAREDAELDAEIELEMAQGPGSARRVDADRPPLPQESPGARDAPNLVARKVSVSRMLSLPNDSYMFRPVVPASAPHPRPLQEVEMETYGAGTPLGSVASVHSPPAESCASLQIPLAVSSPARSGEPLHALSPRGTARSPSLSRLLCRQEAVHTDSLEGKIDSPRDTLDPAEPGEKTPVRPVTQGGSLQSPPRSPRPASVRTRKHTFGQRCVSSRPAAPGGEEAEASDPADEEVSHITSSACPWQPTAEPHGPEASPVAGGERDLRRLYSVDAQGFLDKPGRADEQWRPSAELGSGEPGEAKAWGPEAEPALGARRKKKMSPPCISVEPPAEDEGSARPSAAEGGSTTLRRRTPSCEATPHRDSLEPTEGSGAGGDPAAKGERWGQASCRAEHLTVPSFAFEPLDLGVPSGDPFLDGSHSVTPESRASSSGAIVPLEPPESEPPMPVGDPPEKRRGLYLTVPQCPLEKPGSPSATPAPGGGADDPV
The experiment can be described thus: FLIPR calcium flux assay, HEK293 cells recombinantly expressing Cav3.2. The conditions noted are these: Cav3.2-channel, Fluo-4-AM, 3 min incubation, stimulation with 10 mM CaCl2. Type of experiment: cell-based. The method in brief: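 HEK293 cells stably expressing human Cav3.2 were loaded with Fluo-4-AM. Compounds diluted in TEAC buffer (pH 7.2) were preincubated for 3 min, then Ca2+ entry was triggered by 10 mM final CaCl2. Inhibition curves were fitted sigmoidally to the area under the fluorescence trace.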
On the technique in general: A change in cytosolic calcium serves as a functional read-out for many receptors and channels.
For `N#Cc1ccc(Cn2ccc(NC(=O)Cc3ccc(N4CCCC4)nc3)n2)nc1` [Example 276, N-[1-(5-Cyano-pyridin-2-ylmethyl)-1H-pyrazol-3-yl]-2-(6-pyrrolidin-1-yl-pyridin-3-yl)-acetamide], the IC50 was determined as 188 nM. For `N#Cc1ccc(Cn2ccc(NC(=O)Cc3ccc(C4(C(F)(F)F)CC4)cc3)n2)cc1` [Example 277, N-[1-(4-Cyano-benzyl)-1H-pyrazol-3-yl]-2-[4-(1-trifluoromethyl-cyclopropyl)-phenyl]-acetamide], the IC50 was 15 nM. As to `N#Cc1cc(Cn2ccc(NC(=O)Cc3ccc(OCC4COC4)cc3)n2)ccc1F` [Example 279, N-[1-(3-Cyano-4-fluoro-benzyl)-1H-pyrazol-3-yl]-2-[4-(oxetan-3-ylmethoxy)-phenyl]-acetamide], the IC50 is 275 nM.

On to `CC1(COc2ccc(CC(=O)Nc3ccn(Cc4ccc(F)c(C#N)c4)n3)cc2)COC1` [Example 280, N-[1-(3-Cyano-4-fluoro-benzyl)-1H-pyrazol-3-yl]-2-[4-(3-methyl-oxetan-3-ylmethoxy)-phenyl]-acetamide], for which the IC50 was 138 nM. As for `N#Cc1cc(Cn2ccc(NC(=O)Cc3ccc(OC4CC(F)(F)C4)cc3)n2)ccc1F` [Example 281, N-[1-(3-Cyano-4-fluoro-benzyl)-1H-pyrazol-3-yl]-2-[4-(3,3-difluoro-cyclobutoxy)-phenyl]-acetamide], the IC50 worked out at 21 nM. In the case of `CC(C)c1ccc(CC(=O)Nc2ccn(Cc3ccc(F)c(C#N)c3)n2)cc1` [Example 282, N-[1-(3-Cyano-4-fluoro-benzyl)-1H-pyrazol-3-yl]-2-(4-isopropyl-phenyl)-acetamide] it was 12 nM; in that of `CC(C)(C)c1ccc(CC(=O)Nc2ccn(Cc3ccc(F)c(C#N)c3)n2)cc1` [Example 283, 2-(4-tert-Butyl-phenyl)-N-[1-(3-cyano-4-fluoro-benzyl)-1H-pyrazol-3-yl]-acetamide], 9.5 nM; in that of `CC1(COc2ccc(CC(=O)Nc3ccn(Cc4ccc(C#N)cn4)n3)cc2)COC1` [Example 284, N-[1-(5-Cyano-pyridin-2-ylmethyl)-1H-pyrazol-3-yl]-2-[4-(3-methyl-oxetan-3-ylmethoxy)-phenyl]-acetamide], 3070 nM. In the case of `CC1(COc2ccc(CC(=O)Nc3ccn(Cc4ccc(C#N)cc4)n3)cc2)COC1` [Example 285, N-[1-(4-Cyano-benzyl)-1H-pyrazol-3-yl]-2-[4-(3-methyl-oxetan-3-ylmethoxy)-phenyl]-acetamide], the IC50 worked out at 208 nM. Turning to `N#Cc1ccc(Cn2ccc(NC(=O)Cc3ccc(OCC4COC4)cc3)n2)cc1` [Example 286, N-[1-(4-Cyano-benzyl)-1H-pyrazol-3-yl]-2-[4-(oxetan-3-ylmethoxy)-phenyl]-acetamide], the IC50 was 393 nM.

As for `N#Cc1ccc(Cn2ccc(NC(=O)Cc3ccc(OCC4COC4)cc3)n2)nc1` [Example 287, N-[1-(5-Cyano-pyridin-2-ylmethyl)-1H-pyrazol-3-yl]-2-[4-(oxetan-3-ylmethoxy)-phenyl]-acetamide], the IC50 worked out at 9480 nM.

As to `N#Cc1ccc(Cn2ccc(NC(=O)Cc3ccc(C4CC(F)(F)C4)cc3)n2)cc1F` [Example 288, N-[1-(4-Cyano-3-fluoro-benzyl)-1H-pyrazol-3-yl]-2-[4-(3,3-difluoro-cyclobutyl)-phenyl]-acetamide], the IC50 came to 4.7 nM.

On to `N#Cc1ccc(Cn2ccc(NC(=O)Cc3ccc(OCC4CC(F)(F)C4)cc3)n2)cc1F` [Example 289, N-[1-(4-Cyano-3-fluoro-benzyl)-1H-pyrazol-3-yl]-2-[4-(3,3-difluoro-cyclobutylmethoxy)-phenyl]-acetamide], for which the IC50 came out at 23 nM. For `CC1(COc2ccc(CC(=O)Nc3ccn(Cc4ccc(C#N)c(F)c4)n3)cc2)CC(F)(F)C1` [Example 290, N-[1-(4-Cyano-3-fluoro-benzyl)-1H-pyrazol-3-yl]-2-[4-(3,3-difluoro-1-methyl-cyclobutylmethoxy)-phenyl]-acetamide], the IC50 was 39 nM. The result for `Cn1ncc2ccc(CC(=O)Nc3ccn(Cc4ccc(C#N)c(F)c4)n3)cc21` [Example 291, N-[1-(4-Cyano-3-fluoro-benzyl)-1H-pyrazol-3-yl]-2-(1-methyl-1H-indazol-6-yl)-acetamide] reads 80 nM; that for `Cn1ccc2cc(CC(=O)Nc3ccn(Cc4ccc(C#N)c(F)c4)n3)ccc21` [Example 292, N-[1-(4-Cyano-3-fluoro-benzyl)-1H-pyrazol-3-yl]-2-(1-methyl-1H-indol-5-yl)-acetamide], 6.5 nM. In the case of `Cn1ccc2ccc(CC(=O)Nc3ccn(Cc4ccc(C#N)c(F)c4)n3)cc21` [Example 293, N-[1-(4-Cyano-3-fluoro-benzyl)-1H-pyrazol-3-yl]-2-(1-methyl-1H-indol-6-yl)-acetamide] it was 6.6 nM; in that of `N#Cc1ccc(Cn2ccc(NC(=O)Cc3ccc(N4CCC(F)(F)C4)nc3)n2)cc1F` [Example 294, N-[1-(4-Cyano-3-fluoro-benzyl)-1H-pyrazol-3-yl]-2-[6-(3,3-difluoro-pyrrolidin-1-yl)-pyridin-3-yl]-acetamide], 22 nM; in that of `Cn1ncc2ccc(CC(=O)Nc3ccn(Cc4ccc(C#N)cc4)n3)cc21` [Example 295, N-[1-(4-Cyano-benzyl)-1H-pyrazol-3-yl]-2-(1-methyl-1H-indazol-6-yl)-acetamide], 308 nM. In the case of `Cn1ccc2cc(CC(=O)Nc3ccn(Cc4ccc(C#N)cc4)n3)ccc21` [Example 296, N-[1-(4-Cyano-benzyl)-1H-pyrazol-3-yl]-2-(1-methyl-1H-indol-5-yl)-acetamide] it was 17 nM; in that of `Cn1ccc2ccc(CC(=O)Nc3ccn(Cc4ccc(C#N)cc4)n3)cc21` [Example 297, N-[1-(4-Cyano-benzyl)-1H-pyrazol-3-yl]-2-(1-methyl-1H-indol-6-yl)-acetamide], 20 nM. Consider `CC1(COc2ccc(CC(=O)Nc3ccn(Cc4ccc(C#N)cc4)n3)cc2)CC(F)(F)C1` [Example 298, N-[1-(4-Cyano-benzyl)-1H-pyrazol-3-yl]-2-[4-(3,3-difluoro-1-methyl-cyclobutylmethoxy)-phenyl]-acetamide], for which the IC50 was found to be 43 nM. Take `N#Cc1ccc(Cn2ccc(NC(=O)Cc3ccc(OCC4CC(F)(F)C4)cc3)n2)cc1` [Example 299, N-[1-(4-Cyano-benzyl)-1H-pyrazol-3-yl]-2-[4-(3,3-difluoro-cyclobutylmethoxy)-phenyl]-acetamide]: the IC50 came out at 37 nM.

Take `N#Cc1ccc(Cn2ccc(NC(=O)Cc3ccc(C4CC(F)(F)C4)cc3)n2)cc1` [Example 300, N-[1-(4-Cyano-benzyl)-1H-pyrazol-3-yl]-2-[4-(3,3-difluoro-cyclobutyl)-phenyl]-acetamide]: the IC50 amounted to 7.5 nM. Take `Cn1ccc2cc(CC(=O)Nc3ccn(Cc4ccc(C#N)cn4)n3)ccc21` [Example 301, N-[1-(5-Cyano-pyridin-2-ylmethyl)-1H-pyrazol-3-yl]-2-(1-methyl-1H-indol-5-yl)-acetamide]: the IC50 stood at 71 nM. In the case of `Cn1ccc2ccc(CC(=O)Nc3ccn(Cc4ccc(C#N)cn4)n3)cc21` [Example 302, N-[1-(5-Cyano-pyridin-2-ylmethyl)-1H-pyrazol-3-yl]-2-(1-methyl-1H-indol-6-yl)-acetamide] it was 39 nM; in that of `CC1(COc2ccc(CC(=O)Nc3ccn(Cc4ccc(C#N)cn4)n3)cc2)CC(F)(F)C1` [Example 303, N-[1-(5-Cyano-pyridin-2-ylmethyl)-1H-pyrazol-3-yl]-2-[4-(3,3-difluoro-1-methyl-cyclobutylmethoxy)-phenyl]-acetamide], 51 nM; in that of `N#Cc1ccc(Cn2ccc(NC(=O)Cc3ccc(OCC4CC(F)(F)C4)cc3)n2)nc1` [Example 304, N-[1-(5-Cyano-pyridin-2-ylmethyl)-1H-pyrazol-3yl]-2-[4-(3,3-difluoro-cyclobutylmethoxy)-phenyl]-acetamide], 118 nM. As to `N#Cc1ccc(Cn2ccc(NC(=O)Cc3ccc(C4CC(F)(F)C4)cc3)n2)nc1` [Example 305, N-[1-(5-Cyano-pyridin-2-ylmethyl)-1H-pyrazol-3-yl]-2-[4-(3,3-difluoro-cyclobutyl)-phenyl]-acetamide], the half-maximal inhibitory concentration (IC50) amounted to 29 nM.

`N#Cc1cc(Cn2ccc(NC(=O)Cc3ccc(N4CCC(F)(F)C4)nc3)n2)ccc1F` [Example 306, N-[1-(3-Cyano-4-fluoro-benzyl)-1H-pyrazol-3-yl]-2-[6-(3,3-difluoro-pyrrolidin-1-yl)-pyridin-3-yl]-acetamide]: the IC50 amounted to 17 nM. In the case of `N#Cc1cc(Cn2ccc(NC(=O)Cc3ccc(N4CCCC4)nc3)n2)ccc1F` [Example 307, N-[1-(3-Cyano-4-fluoro-benzyl)-1H-pyrazol-3-yl]-2-(6-pyrrolidin-1-yl-pyridin-3-yl)-acetamide], the IC50 came out at 42 nM. In the case of `Cn1ncc2ccc(CC(=O)Nc3ccn(Cc4ccc(F)c(C#N)c4)n3)cc21` [Example 308, N-[1-(3-Cyano-4-fluoro-benzyl)-1H-pyrazol-3-yl]-2-(1-methyl-1H-indazol-6-yl)-acetamide], the IC50 stood at 263 nM. Consider `Cn1ccc2ccc(CC(=O)Nc3ccn(Cc4ccc(F)c(C#N)c4)n3)cc21` [Example 309, N-[1-(3-Cyano-4-fluoro-benzyl)-1H-pyrazol-3-yl]-2-(1-methyl-1H-indol-6-yl)-acetamide], for which the concentration for half-maximal inhibition (IC50) turned out to be 27 nM. As to `Cn1ccc2cc(CC(=O)Nc3ccn(Cc4ccc(F)c(C#N)c4)n3)ccc21` [Example 310, N-[1-(3-Cyano-4-fluoro-benzyl)-1H-pyrazol-3-yl]-2-(1-methyl-1H-indol-5-yl)-acetamide], the IC50 is 13 nM.

Turning to `CC1(COc2ccc(CC(=O)Nc3ccn(Cc4ccc(F)c(C#N)c4)n3)cc2)CC(F)(F)C1` [Example 311, N-[1-(3-Cyano-4-fluoro-benzyl)-1H-pyrazol-3-yl]-2-[4-(3,3-difluoro-1-methyl-cyclobutylmethoxy)-phenyl]-acetamide], the IC50 is 81 nM.
